From the supplement of paper PMC11061612

Legend:
Test in all cases: Bliss excess, mean over the matrix (fraction); higher = more synergy
[1] = tested on: DBTRG-05MG (Glioblastoma)
Summary of the method: (§1)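 Bliss excess equals the observed combination effect minus the expected value EA + EB − EA·EB, where EA and EB are the effects of each agent alone. Combination Emax is the second-highest inhibition within the matrix. Inhibition was scaled from CellTiter-Glo 2.0 luminescence, with 0 set by vehicle wells and 1 by blank wells, after 72 hours of two-drug dosing of cells plated in 1536-well plates.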

[2] = tested on: GAK (Melanoma)
Summary of the method: as §1

[3] = tested on: HT-1080 (Other Solid Carcinomas)
Summary of the method: as §1

[4] = tested on: IST-MEL1 (Melanoma)
Summary of the method: as §1

[5] = tested on: LCLC-103H (Non-Small Cell Lung Carcinoma)
Summary of the method: as §1

[6] = tested on: MDA-MB-415 (Breast Carcinoma)
Summary of the method: as §1

[7] = tested on: MM1S (Plasma Cell Myeloma)
Summary of the method: as §1

[8] = tested on: MOLP-8 (Plasma Cell Myeloma)
Summary of the method: as §1

[9] = tested on: MS-1 (Small Cell Lung Carcinoma)
Summary of the method: as §1

[10] = tested on: NAMALWA (Burkitt's Lymphoma)
Summary of the method: as §1

[11] = tested on: NB1 (Neuroblastoma)
Summary of the method: as §1

[12] = tested on: NCI-H1341 (Small Cell Lung Carcinoma)
Summary of the method: as §1

[13] = tested on: NCI-H2373 (Mesothelioma)
Summary of the method: as §1

[14] = tested on: NMC-G1 (Low Grade Glioma)
Summary of the method: as §1

[15] = tested on: PA-TU-8988T (Pancreatic Carcinoma)
Summary of the method: as §1

[16] = tested on: PL4 (Pancreatic Carcinoma)
Summary of the method: as §1

[17] = tested on: SK-N-SH (Neuroblastoma)
Summary of the method: as §1

[18] = tested on: T47D (Breast Carcinoma)
Summary of the method: as §1

[19] = tested on: UACC-257 (Melanoma)
Summary of the method: as §1

[20] = tested on: WM35 (Melanoma)
Summary of the method: as §1

SMILES	Bliss excess [1]	Bliss excess [2]	Bliss excess [3]	Bliss excess [4]	Bliss excess [5]	Bliss excess [6]	Bliss excess [7]	Bliss excess [8]	Bliss excess [9]	Bliss excess [10]	Bliss excess [11]	Bliss excess [12]	Bliss excess [13]	Bliss excess [14]	Bliss excess [15]	Bliss excess [16]	Bliss excess [17]	Bliss excess [18]	Bliss excess [19]	Bliss excess [20]
Cc1cc2ncnn2cc1Nc1ncc2c(n1)n(C1CCOCC1)c(=O)n2C [AZD7648] + C=CCn1c(=O)c2cnc(Nc3ccc(N4CCN(C)CC4)cc3)nc2n1-c1cccc(C(C)(C)O)n1 [AZD1775] (first compound max 10 µM, partner max 1 µM)	0.0039	-0.0275	0.0591	-0.011	0.002	-0.027	-0.0401	0.0123	-0.0401	-0.0101	-0.0015	-0.0476	-0.0322	0.0106	-0.0563	0.0057	-0.0069	-0.0146	0.0334	-0.0364
COc1cccc(OCCCN)c1-c1cc(Nc2cnc(C#N)cn2)n[nH]1 [Prexasertib] + O=C(c1cc(Cc2n[nH]c(=O)c3ccccc23)ccc1F)N1CCN(C(=O)C2CC2)CC1 [Olaparib] (first compound max 1 µM, 7x7, partner max 10 µM)	-0.025	-0.0159	0.0164	-0.124	-0.0572	0.0074	-0.0683	-0.0802	-0.0481	-0.044	-0.0411	-0.0022	0.001	-0.0325	-0.0057	0.0356	-0.0217	-0.0093	-0.0242	-0.0377
CC1(C)CCC(CN2CCN(c3ccc(C(=O)NS(=O)(=O)c4ccc(NCC5CCOCC5)c([N+](=O)[O-])c4)c(Oc4cnc5[nH]ccc5c4)c3)CC2)=C(c2ccc(Cl)cc2)C1 [Venetoclax] + COc1cc(Nc2ncc3c(n2)-c2ccc(Cl)cc2C(c2c(F)cccc2OC)=NC3)ccc1C(=O)O [Alisertib] (first compound max 1 µM, 7x7, partner max 10 µM)	-0.0248	-0.0359	0.0087	-0.0547	-0.0132	-0.0711	0.078	0.141	0.0861	-0.0072	0.117	0.125	-0.0293	-0.0125	0.0042	-0.0531	0.0326	-0.0093	-0.0234	-0.0338
Cc1cc2ncnn2cc1Nc1ncc2c(n1)n(C1CCOCC1)c(=O)n2C [AZD7648] + CCN(CCO)CCCOc1ccc2c(Nc3cc(CC(=O)Nc4cccc(F)c4)[nH]n3)ncnc2c1 [AZD2811] (first compound max 10 µM, 7x7, partner max 1 µM)	-0.0028	-0.035	0.0364	0.03	-0.026	-0.002	0.0333	0.0616	0.0104	0.114	-0.0026	0.0568	-0.034	-0.0407	0.0056	-0.0041	0.0001	0.055	0.0315	-0.0036
CC1(C)CCC(CN2CCN(c3ccc(C(=O)NS(=O)(=O)c4ccc(NCC5CCOCC5)c([N+](=O)[O-])c4)c(Oc4cnc5[nH]ccc5c4)c3)CC2)=C(c2ccc(Cl)cc2)C1 [Venetoclax] + C=CCn1c(=O)c2cnc(Nc3ccc(N4CCN(C)CC4)cc3)nc2n1-c1cccc(C(C)(C)O)n1 [AZD1775] (first compound max 1 µM, partner max 1 µM)	-0.0476	0.0074	-0.0359	0.0462	-0.0136	-0.028	-0.0281	-0.0225	0.0465	0.0438	-0.0466	0.101	-0.0789	0.0064	-0.0286	-0.0751	0.0526	-0.0814	-0.0142	-0.0447
CN(CCO)CC[C@H](CSc1ccccc1)Nc1ccc(S(=O)(=O)NC(=O)c2ccc(N3CCC([C@@H](O)c4ccccc4-c4ccc(Cl)cc4)CC3)cc2)cc1S(=O)(=O)C(F)(F)F [AZD4320] + C[C@@H](Nc1cc(F)cc(F)c1)c1cc(C(=O)N(C)C)cc2c(=O)cc(N3CCOCC3)oc12 [AZD8186] (first compound max 1 µM, 7x7, partner max 3 µM)	0.02	-0.0727	-0.0232	0.0237	-0.0139	0.0439	0.0538	0.0576	0.0115	0.0041	-0.0033	0.0517	-0.0561	0.0254	-0.005	-0.0411	-0.071	-0.0242	0.0488	0.047
CCN(CCO)CCCOc1ccc2c(Nc3cc(CC(=O)Nc4cccc(F)c4)[nH]n3)ncnc2c1 [AZD2811] + O=C(c1cc(Cc2n[nH]c(=O)c3ccccc23)ccc1F)N1CCN(C(=O)C2CC2)CC1 [Olaparib] (first compound max 1 µM, 7x7, partner max 10 µM)	-0.0179	-0.0049	-0.0043	0.0192	-0.0275	0.0059	0.0541	0.0384	0.0107	0.0548	-0.0581	0.0125	0.0244	-0.025	0.0228	-0.0043	-0.0701	0.005	-0.0322	0.0069
CC1(C)CCC(CN2CCN(c3ccc(C(=O)NS(=O)(=O)c4ccc(NCC5CCOCC5)c([N+](=O)[O-])c4)c(Oc4cnc5[nH]ccc5c4)c3)CC2)=C(c2ccc(Cl)cc2)C1 [Venetoclax] + C[C@@H](Nc1cc(F)cc(F)c1)c1cc(C(=O)N(C)C)cc2c(=O)cc(N3CCOCC3)oc12 [AZD8186] (first compound max 1 µM, 7x7, partner max 3 µM)	-0.0251	-0.0325	-0.0311	0.0253	-0.0504	-0.0128	0.0377	0.0293	0.0357	0.0287	-0.047	0.0918	-0.0473	-0.0256	0.0383	-0.049	0.0249	-0.0159	-0.0538	-0.0332
COc1cccc(OCCCN)c1-c1cc(Nc2cnc(C#N)cn2)n[nH]1 [Prexasertib] + CN(C)CCCOc1ccc(-c2ccc3ncc4c(c3c2)n(C2CCOCC2)c(=O)n4C)cn1 [AZD0156] (first compound max 1 µM, 7x7, partner max 1 µM)	-0.0209	0.0668	0.0241	-0.05	-0.0391	-0.0099	-0.0718	-0.0203	0.0205	-0.0133	0.142	-0.032	0.0329	-0.0134	0.0179	-0.0387	-0.0496	-0.0302	0.0044	0.0756
Cc1cc2ncnn2cc1Nc1ncc2c(n1)n(C1CCOCC1)c(=O)n2C [AZD7648] + O=C(c1cc(Cc2n[nH]c(=O)c3ccccc23)ccc1F)N1CCN(C(=O)C2CC2)CC1 [Olaparib] (first compound max 10 µM, 7x7, partner max 10 µM)	-0.0477	-0.0379	-0.0165	-0.0517	-0.0374	-0.0121	0.0141	-0.0267	-0.0087	-0.0119	-0.0431	0.013	0.0234	-0.0538	-0.0047	-0.0364	0.0056	-0.042	-0.0422	-0.0239
COc1cccc(OCCCN)c1-c1cc(Nc2cnc(C#N)cn2)n[nH]1 [Prexasertib] + C=CCn1c(=O)c2cnc(Nc3ccc(N4CCN(C)CC4)cc3)nc2n1-c1cccc(C(C)(C)O)n1 [AZD1775] (first compound max 1 µM, partner max 1 µM)	-0.0008	0.0832	0.0643	0.0406	0.0284	0.0729	0.0356	0.0398	0.0972	0.06	0.0693	0.13	0.0601	-0.0285	0.227	0.0483	0.0025	0.085	0.0714	0.0668
C[C@@H]1COCCN1c1cc(C2([S@](C)(=N)=O)CC2)nc(-c2ccnc3[nH]ccc23)n1 [AZD6738] + O=C(c1cc(Cc2n[nH]c(=O)c3ccccc23)ccc1F)N1CCN(C(=O)C2CC2)CC1 [Olaparib] (first compound max 10 µM, 7x7, partner max 10 µM)	0.0096	0.0019	0.0128	0.035	0.0482	0.0239	-0.0388	0.003	0.0056	-0.0187	-0.058	-0.0105	0.0165	0.0071	0.0472	-0.0408	-0.0667	0.0359	-0.0009	0.0084
